{"source": "patent US3981982A", "about": "“Radioimmunoassay for determining the digoxin content of a sample” (Abbott Laboratories, priority 1974, dated 1976)", "key": {"digoxin antibody [1]": {"system": "digoxin antibody", "experiment": "Reproducibility of percent bound, two technicians (Table II)", "assay_type": "binding, rabbits", "protocol": "(§1) The tubes are shaken to mix the reagents therein.\nTable II illustrates the accuracy, precision and reproducibilty of the method of the present invention.\nReplicates of 2 Panel Samples were assayed by two technicians in the\nlaboratory. Fifteen replicate samples were used."}, "digoxin antibody [2]": {"system": "digoxin antibody", "experiment": "Competitive radioimmunoassay with I^125 digoxin tyramine analog, polyethylene glycol separation: percent bound (Table I)", "assay_type": "binding, rabbits", "conditions": "for Percent Bound: single tube", "description": "Described is a competitive radioimmunoassay in which non-radioactive digoxin in a serum sample competes with a constant amount of I^125 digoxin tyramine analog for binding cites on a limited amount of digoxin antibody. The percentage or portion of the radioactivity labeled digoxin which is bound to the antibody is inversely proportional to the concentration of digoxin in the serum sample. The antibody bound digoxin, both radioactive and non-radioactive is separated from unbound digoxin and the radioactivity of the complex is measured with a well-type gamma scintillation counter. The concentration of digoxin in the serum is determined by comparison with standards containing measured amounts of unlabeled digoxin. The use of I^125 digoxin tyramine analog simplifies the procedure, obviating the need for liquid scintillation counting fluid which must be used with ^3 H-digoxin.\nIn the radioimmunoassay of the present invention, the use of polyethylene glycol is preferred to separate the bound, labeled digoxin tyramine analog from the free digoxin although ethanol or ammonium sulfate can be used. After incubation of the antigen and antibody, a predetermined amount of polyethylene glycol is added and the mixture is agitated. Subsequently, the antibody-bound digoxin is precipitated and separated by centrifugation. The radioactivity remaining in the precipitate is measured to determine the amount of I^125 digoxin tyramine analog which is bound to the antibody. This amount will be inversely proportional with the quantity of nonlabeled antigen present in the serum sample.\nThe radioimmunoassay of the present invention measures digoxin in the serum sample. The digoxin in a serum sample competes with a constant amount of a radioactively labeled digoxin tyramine analog for binding cites on a limited amount of digoxin antibody. The digoxin tyramine analog comprises 3-0-(4-Hydroxyphenethylcarbamoyl) digoxigenin prepared as hereinafter described. The digoxin tyramine analog is labeled with a radioactive isotope, employing conventional procedures. Iodine-I^125 is preferred as the labeling agent because of its advantageous half life but other radionuclides such as iodine^131, phosphorus^32 and tritium can also be used to radioactively label the reagent. The use of this tracer simplifies the procedure, obviating the need for liquid scintillation counting fluid which must be used with prior tracers such as ^3 H-digoxin.\n1. I^125 -digoxin tyramine analog solution in an alcohol-phosphate saline buffer and having a radioactivity level of approximately 1 microcurie per vial.\n2. Digoxin standards for preparation of a standard curve and comprising five vials containing 0.0, 0.5, 1.0, 2.0 and 4.0 nanograms per milliliter digoxin in normal human serum. 0.2% sodium azide is used as a preservative.\n3. Digoxin antiserum obtained from rabbits in phosphate-saline buffer containing 0.1% […] serum albumin. 0.2% sodium azide is used as a preservative.\n4. Polyethylene glycol, 18% solution in 0.09M barbital buffer.\nThe test procedure is conducted as follows.\nb. Tubes 3 through 12 containing known amounts of digoxin are used to prepare the standard curve. Tubes 3 and 4, 0.0 nanograms per milliliter digoxin. Tubes 5 and 6, 0.5 nanograms per milliliter digoxin. Tubes 7 and 8, 1.0 nanograms per milliliter digoxin. Tubes 9 and 10, 2.0 nanograms per milliliter digoxin. Tubes 11 and 12, 4.0 nanograms per milliliter digoxin.\nas §1\nThe points are connected with straight lines to construct the curve."}, "[3]": {"conditions": "digoxin level; suggested by H. M. Part et al., J. of NUCL. Med. 1973; cited from earlier work"}, "[4]": {"conditions": "usually; background statement; cited from earlier work"}}, "note": "“And” between values parts separate entries of the source, which are not always exact repeats. Equal entries are not always repeated.", "data": [{"smiles": "C[C@]12CC[C@H](OC(=O)NCCc3ccc(O)c([125I])c3)C[C@H]1CC[C@@H]1[C@@H]2C[C@@H](O)[C@]2(C)[C@@H](C3=CC(=O)OC3)CC[C@]12O", "note": "[I^125 digoxin tyramine analog]", "values": [{"measurement": "% Bound", "setting": "digoxin antibody [1]; Panel Sample 1, Technician I, fifteen replicates", "result": 44.1, "unit": "%"}, {"measurement": "% Bound", "setting": "digoxin antibody [1]; Panel Sample 1, Technician II, fifteen replicates", "result": 43.6, "unit": "%"}, {"measurement": "% Bound", "setting": "digoxin antibody [1]; Panel Sample 2, Technician I, only 14 replicates", "result": 21.5, "unit": "%"}, {"measurement": "% Bound", "setting": "digoxin antibody [1]; Panel Sample 2, Technician II, fifteen replicates", "result": 20.1, "unit": "%"}, {"measurement": "Average % Bound", "setting": "digoxin antibody [2]; digoxin standard 0.0 ng/ml, mean of duplicate tubes 3, 4", "result": 59.7, "unit": "%"}, {"measurement": "Percent Bound", "setting": "digoxin antibody [2]; digoxin standard 0.0 ng/ml", "result": "59.2% and 60.2%"}, {"measurement": "Average % Bound", "setting": "digoxin antibody [2]; digoxin standard 0.5 ng/ml, mean of duplicate tubes 5, 6", "result": 52.9, "unit": "%"}, {"measurement": "Percent Bound", "setting": "digoxin antibody [2]; digoxin standard 0.5 ng/ml", "result": "53.8% and 52.1%"}, {"measurement": "Average % Bound", "setting": "digoxin antibody [2]; digoxin standard 1.0 ng/ml, mean of duplicate tubes 7, 8", "result": 41.5, "unit": "%"}, {"measurement": "Percent Bound", "setting": "digoxin antibody [2]; digoxin standard 1.0 ng/ml", "result": 41.5, "unit": "%"}, {"measurement": "Average % Bound", "setting": "digoxin antibody [2]; digoxin standard 2.0 ng/ml, mean of duplicate tubes 9, 10", "result": 22.9, "unit": "%"}, {"measurement": "Percent Bound", "setting": "digoxin antibody [2]; digoxin standard 2.0 ng/ml", "result": "22.5% and 23.4%"}, {"measurement": "Average % Bound", "setting": "digoxin antibody [2]; digoxin standard 4.0 ng/ml, mean of duplicate tubes 11, 12", "result": 12.9, "unit": "%"}, {"measurement": "Percent Bound", "setting": "digoxin antibody [2]; digoxin standard 4.0 ng/ml", "result": "12.8% and 12.9%"}, {"measurement": "Average % Bound", "setting": "digoxin antibody [2]; unknown serum sample No. 14, mean of duplicates", "result": 17.7, "unit": "%"}, {"measurement": "Percent Bound", "setting": "digoxin antibody [2]; unknown serum sample No. 14", "result": "17.5% and 17.9%"}, {"measurement": "Average % Bound", "setting": "digoxin antibody [2]; unknown serum sample No. 15, mean of duplicates", "result": 64.1, "unit": "%"}, {"measurement": "Percent Bound", "setting": "digoxin antibody [2]; unknown serum sample No. 15", "result": "63.3% and 65.0%"}, {"measurement": "Average % Bound", "setting": "digoxin antibody [2]; unknown serum sample No. 16, mean of duplicates", "result": 25.3, "unit": "%"}, {"measurement": "Percent Bound", "setting": "digoxin antibody [2]; unknown serum sample No. 16", "result": "25.1% and 25.5%"}, {"measurement": "Average % Bound", "setting": "digoxin antibody [2]; unknown serum sample No. 17, mean of duplicates", "result": 49.6, "unit": "%"}, {"measurement": "Percent Bound", "setting": "digoxin antibody [2]; unknown serum sample No. 17", "result": "50.8% and 48.5%"}, {"measurement": "Average % Bound", "setting": "digoxin antibody [2]; unknown serum sample No. 18, mean of duplicates", "result": 24.4, "unit": "%"}, {"measurement": "Percent Bound", "setting": "digoxin antibody [2]; unknown serum sample No. 18", "result": "24.5% and 24.3%"}]}, {"smiles": "C[C@H]1O[C@@H](O[C@H]2[C@@H](O)C[C@H](O[C@H]3[C@@H](O)C[C@H](O[C@H]4CC[C@@]5(C)[C@H](CC[C@@H]6[C@@H]5C[C@@H](O)[C@]5(C)[C@@H](C7=CC(=O)OC7)CC[C@]65O)C4)O[C@@H]3C)O[C@@H]2C)C[C@H](O)[C@@H]1O", "note": "[digoxin]", "values": [{"measurement": "approximate toxic threshold", "setting": "[3]", "result": "~2", "unit": "ng/mL"}, {"measurement": "amounts of digoxin in serum", "setting": "[4]", "result": "less than five"}]}]}
